Test results from patent publication US11826369B2, “Targeting the TLK1/NEK1 axis in prostate cancer” (Board of Supervisors of Louisiana State University and …, priority 2019, dated 2023).

What was measured:
[1] = test system: LNCaP xenografts; assay: LNCaP xenograft model; assay type: in vivo, NOD/SCID mice; conditions: mouse, in vivo
Experimental: Treatment started 19 days after implantation when the tumors measure ˜200 mm^3. Two independent experiment with 5 mice per group were carried out. J54 and Bicalutamide was dissolved in DMSO and diluted in corn oil 1:10 and administered IP bi-weekly. Sectioning and processing of the tissues were carried out in the FWCC Histology Service, using automated processes and equipment to provide uniform and standardized results. Indirect labeling was with ABC Elite: RTU Vectastain Elite Reagent, Vector #PK-7100; DAB: ImmPact DAB, Vector #SK-4105. Light counterstaining was done with hematoxylin. […] Note the weak pNek1 stain in the tumor from mice treated with J54, in contrast to the increase seen with BIC.
LNCaP Xenograft Model and Immunohistochemistry (IHC): All animals used in this study were approved by LSUHSC IACUC and following ARRIVE guidelines. Male NOD/SCID mice (5 per group) were purchased from Jackson labs. LNCaP cells were injected as described earlier. Mice were treated IP bi-weekly with J54 (5 mg/kg body weight—dose estimation derived from pharmacokinetics study) and/or Bicalutamide (100 mg/kg).
The inventors sought to establish if the addition of J54 could suppress the resurgence of tumor growth of LNCaP xenografts and their latter conversion to CRPC. Following formation of sizeable tumors (˜200 mm^3), castration or anti-androgens arrest the progression of LNCaP xenografts for some time (2-3 weeks), while subsequently the tumors start growing again at an accelerated rate which is refractory to ADT (AI). Therefore, the inventors injected LNCaP cells in matrigel in both flanks of NOD-SCID mice, and then randomly assigned them to four treatment groups (n=5 per group×2 independent experiments), as shown in FIGS. 13A-13C. […] The inventors should also point out that the inventors treated the mice with J54 only bi-weekly due to the favorable pharmacokinetics, where maximal plasma concentration of 100 ng/ml ([…]) were reached 2 h after IP injection, and was still present at −6 ng/ml (6 μM) after 24 h (FIG. 18A-18C).

[2] = target: T1, recombinant TLK1B (Homo sapiens, UniProt Q9UKI8); assay: TLK1B kinase assay with Nek1 peptide (ADP Hunter), inhibitor screening; assay type: biochemical; parameters: The full-length, 65 KDa recombinant human TLK1B (hTLK1B) for the in-vitro experiments was expressed and purified from bacteria; made in house; host or cells: bacteria; conditions: tested at 20 μM
T1 sequence (Q9UKI8 1-549 isoform Q9UKI8-3): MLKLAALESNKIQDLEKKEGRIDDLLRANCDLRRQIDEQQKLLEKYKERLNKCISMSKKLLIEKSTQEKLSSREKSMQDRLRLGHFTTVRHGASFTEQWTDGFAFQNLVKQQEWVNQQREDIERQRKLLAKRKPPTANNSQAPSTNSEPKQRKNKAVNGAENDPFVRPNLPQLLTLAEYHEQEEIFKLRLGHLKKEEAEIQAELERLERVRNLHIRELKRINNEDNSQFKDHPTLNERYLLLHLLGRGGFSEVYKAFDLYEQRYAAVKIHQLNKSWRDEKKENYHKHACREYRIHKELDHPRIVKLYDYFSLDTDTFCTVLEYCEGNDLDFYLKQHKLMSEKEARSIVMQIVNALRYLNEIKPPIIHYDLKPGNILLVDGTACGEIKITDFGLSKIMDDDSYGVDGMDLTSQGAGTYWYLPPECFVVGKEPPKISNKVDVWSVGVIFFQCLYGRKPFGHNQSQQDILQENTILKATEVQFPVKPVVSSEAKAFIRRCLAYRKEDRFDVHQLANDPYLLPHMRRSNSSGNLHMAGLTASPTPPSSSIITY
Experimental: FIG. 8A-FIG. 25 show further experiments into the present invention, with FIGS. 8A-8G show kinase assays, inhibitor screening, IC50 evaluation and competitive assays. Recombinant TLK1B purified to homogeneity (FIG. 8A) is active in kinase assays (FIG. 8B) and phosphorylates a specific Nek1 peptide (FIG. 8C). […] All experiments were conducted in triplicates. The DiscoverRx ADP Hunter™ (Eurofins DiscoverRx, Fremont, CA, US) Kit was used to measure the generation of ADP resulting from kinase phosphorylation of substrate.
Chemical synthesis of J54 and several different Phenothiazines and Protein expression and purification: Details were explained in section B of supplementary of material and methods. The full-length, 65 KDa recombinant human TLK1B (hTLK1B) for the in-vitro experiments was expressed and purified from bacteria as described earlier.
Results: A new PTH potent inhibitor of TLK1B. A few PTH antipsychotics were identified in a screen the inventors conducted from a compounds library as good inhibitors of TLK1. To find additional inhibitors, recombinant TLK1B was purified (FIG. 8A). The enzymatic activity was determined using the ADP-Hunter reagents and a Nek1 peptide containing the T141 target site. […] Several structurally similar compounds were synthesized as described in the Appendix (and see NMR and MS data FIGS. 10 and 11) and tested at 20 μM (FIGS. 8E and 8F). […] The inventors continued the inventors' characterization of J54.

[3] = target: T1, recombinant TLK1B; assay: High throughput screen with Rad9 peptide substrate / autokinase assay; assay type: biochemical; conditions: library screen
Experimental: FIGS. 5A and 5B show Inhibition of TLK1/1B autophosphorylation by PTH. […] 293T cells were incubated for 1 hour with PPH. TLK1 was immunoprecipitated, followed by auto-phosphorylation with γ-ATP^32. The blots were then probed with TLK1 antiserum.
Identification of TLK inhibitors. The inventors have screened the Prestwick Library, partially the ChemDiv, and two proprietary libraries (10,000 compounds) for inhibitors of TLK with a high throughput screen with recombinant TLK1B and a Rad9 peptide substrate. […] The inhibition of autokinase activity was confirmed by TCA-precipitable counts with γ32P-ATP (FIG. 5A).

[4] = test system: panel of cell lines, including RWPE1 and hTERT-HME1; assay: Toxicity on a panel of cell lines without doxorubicin; assay type: cell-based; conditions: 15 μM, absence of doxorubicin
[5] = test system: LNCaP cells; assay: Emergence of androgen insensitive (AI) colonies of LNCaP with bicalutamide; assay type: cell-based
[6] = test system: 456 human kinases; assay: Kinome panel (KinomeScan-DiscoverX); assay type: binding

Row | Structure (SMILES) | inhibition of TLK [3] | toxicity [4] | further results
1 | CC(O)(CS(=O)(=O)c1ccc(F)cc1)C(=O)Nc1ccc(C#N)c(C(F)(F)F)c1 (stereo not shown) [BIC, Bicalutamide, reference compound] | – | – | lag before exponential growth following beginning of administration [1]: 12 days
2 | CN1c2ccccc2Sc2ccccc21 [J56, 10-methyl-10H-phenothiazine] | – | – | inhibition of TLK1B compared with standard [2]: more inhibitory than Staurosporin
3 | CN(C)CCCN1c2ccccc2Sc2ccccc21 [PMZ, Promazine] | strong inhibitors | – | –
4 | OCCN1CCN(CCCN2c3ccccc3Sc3ccc(Cl)cc32)CC1 [PPH, Perphenazine] | strong inhibitors | low toxicity | –
5 | CN1CCN(CCCN2c3ccccc3Sc3ccc(C(F)(F)F)cc32)CC1 [TFP, Trifloroperazine] | strong inhibitors | low toxicity | –
6 | CSc1ccc2c(c1)N(CCC1CCCCN1C)c1ccccc1S2 (stereo not shown) [THD, Thioridazine] | strong inhibitors | low toxicity | growth inhibition in androgen containing medium (FCS) ([5]; 3-9 μM THD): 50%; emergence of AI colonies ([5]; 3-9 μM THD with bicalutamide, three weeks): few or no AI colonies emerged; conversion of LNCaP cells to androgen independent growth ([5]; three weeks of culture with bicalutamide): Complete inhibition; specificity on kinome panel [6]: no other kinase (except TLK2) in the panel was inhibited
